Data: the NIST ThermoML archive (doi:10.1016/j.jct.2012.02.028)

Experiment: molar heat capacity at constant pressure
Conditions: 101.33 kPa, Crystal, Vacuum adiabatic calorimetry

O=C([O-])[O-].[Zn+2] [zinc(II) carbonate]
Conditions	molar heat capacity at constant pressure [J/K/mol]
4.397 K	0.009408
4.399 K	0.007545
4.757 K	0.006774
4.774 K	0.006545
5 K	0.00773
5.101 K	0.008038
5.155 K	0.008164
5.346 K	0.01084
5.423 K	0.0117
5.582 K	0.01132
5.688 K	0.00813
5.816 K	0.01409
5.946 K	0.01317
6.06 K	0.0142
6.285 K	0.01382
6.398 K	0.01585
6.723 K	0.01601
6.824 K	0.01961
7.156 K	0.02326
7.254 K	0.02331
7.601 K	0.02683
7.692 K	0.02785
8.054 K	0.03096
8.134 K	0.03204
8.509 K	0.03516
8.576 K	0.03774
8.961 K	0.04103
9.021 K	0.04305
9.412 K	0.0479
9.468 K	0.05013
9.862 K	0.05547
9.915 K	0.05829
10 K	0.05961
10.54 K	0.07294
10.59 K	0.07477
11.45 K	0.09358
11.5 K	0.09604
12.37 K	0.1193
12.41 K	0.1215
13.29 K	0.1517
13.33 K	0.153
14.22 K	0.1928
14.26 K	0.193
15 K	0.2346
15.15 K	0.245
15.18 K	0.2446
16.08 K	0.2992
16.12 K	0.2986
17.02 K	0.3595
17.05 K	0.3608
17.97 K	0.4461
17.99 K	0.4463
18.91 K	0.535
18.93 K	0.5407
19.85 K	0.6305
19.88 K	0.6346
20 K	0.6547
21.27 K	0.8212
21.29 K	0.8243
23.14 K	1.091
23.17 K	1.096
25 K	1.427
25.06 K	1.439
26.95 K	1.841
28.85 K	2.31
30 K	2.613
30.77 K	2.836
32.69 K	3.401
34.62 K	4.038
35 K	4.162
36.33 K	4.607
36.56 K	4.711
38.5 K	5.446
38.58 K	5.466
40 K	6.03
40.52 K	6.253
42.46 K	7.047
44.41 K	7.863
45 K	8.122
46.36 K	8.699
48.32 K	9.572
50 K	10.39
50.28 K	10.5
52.24 K	11.48
54.21 K	12.47
55 K	12.79
56.18 K	13.4
58.15 K	14.28
60 K	15.28
60.13 K	15.34
62.1 K	16.36
64.08 K	17.36
65 K	17.8
66.07 K	18.36
68.03 K	19.3
69.94 K	20.27
70 K	20.32
72.36 K	21.49
75 K	22.79
75.35 K	22.97
78.35 K	24.46
79.92 K	25.19
80 K	25.24
83.21 K	26.77
85 K	27.63
86.23 K	28.21
89.26 K	29.61
90 K	29.96
92.3 K	31
95 K	32.21
95.35 K	32.37
98.41 K	33.68
100 K	34.37
101.48 K	34.99
104.55 K	36.23
105 K	36.41
107.64 K	37.47
110 K	38.38
110.74 K	38.65
113.84 K	39.83
115 K	40.26
116.95 K	40.98
120 K	42.07
120.07 K	42.09
123.2 K	43.18
126.34 K	44.26
129.51 K	45.31
130 K	45.47
132.66 K	46.33
135.83 K	47.34
139 K	48.32
140 K	48.63
142.19 K	49.32
145.38 K	50.23
148.58 K	51.14
150 K	51.6
151.79 K	52.15
155.01 K	53.02
158.25 K	53.93
160 K	54.36
161.49 K	54.75
164.72 K	55.64
167.92 K	56.45
170 K	56.93
171.08 K	57.17
174.21 K	57.91
177.3 K	58.72
180 K	59.33
180.39 K	59.37
183.43 K	60.04
186.44 K	60.81
189.44 K	61.49
190 K	61.57
192.42 K	62.17
195.37 K	62.73
198.3 K	63.33
200 K	63.68
201.2 K	63.91
204.09 K	64.5
206.97 K	65.04
209.83 K	65.68
210 K	65.75
212.67 K	66.32
215.51 K	66.8
218.32 K	67.43
220 K	67.73
221.12 K	67.91
223.9 K	68.47
226.71 K	68.96
229.46 K	69.59
230 K	69.62
232.21 K	70.19
234.93 K	70.69
237.65 K	71.17
240 K	71.45
240.37 K	71.48
243.07 K	71.89
245.76 K	72.45
248.45 K	72.82
250 K	73.2
251.12 K	73.38
253.79 K	73.81
256.45 K	74.15
259.09 K	74.66
260 K	74.88
261.74 K	75.21
264.38 K	75.75
267.01 K	76.21
269.71 K	76.37
270 K	76.38
272.34 K	76.67
273.15 K	76.84
274.96 K	77.02
277.57 K	77.36
280 K	77.83
280.18 K	77.77
282.78 K	78.17
285.37 K	78.56
287.95 K	78.94
290 K	79.24
290.53 K	79.31
293.11 K	79.67
295.68 K	80.03
298.15 K	80.36
298.24 K	80.38
300 K	80.6
300.8 K	80.74
303.36 K	81.1
305.91 K	81.42
308.46 K	81.77
310 K	81.91
311.15 K	82.06
313.7 K	82.4
316.26 K	82.71
318.8 K	83
320 K	83.17
321.35 K	83.28
